# Assay results: patent US20100203614A1, “FATTY ALDEHYDE REDUCTASE” (Utah State University, priority 2009, published 2010)
# Several values for one entry are separate records, joined by “and”; a condition that tells them apart may be missing. Equal values may be shown once. Entries after “also recorded” stand apart in the source; their conditions may differ. Where a name gives a salt, the structure may show the parent alone. Read-outs that look alike come from different tables or passages of the source.
# Columns and labels:
# [1] = target: Marinobacter aquaeolei VT8 fatty aldehyde reductase (SEQ ID NO: 2) as maltose binding protein-fatty aldehyde reductase fusion protein (MBP-FALDR), SEQ ID NO: 3 (Marinobacter nauticus, UniProt A1U2T0); assay: Inhibition of decanal reduction by MBP-FALDR; assay type: biochemical; conditions: for effect on activity (in words): 1.0 mM
# Procedure: (§1) For Fatty Aldehyde Continuous Spectrophotometric Assay Development, all assays were performed in a sealed quartz cuvette with a 1 cm path length. The cuvette and solutions were first degassed with argon on a manifold to remove oxygen from the headspace and solutions. Substrates were initially disbursed into a buffer solution containing BSA at a concentration of 0.5 mg/mL by sonication for three ten second intervals using a microtip sonicator (Branson, Danbury, Conn.). The initial assay for pH optimization included a buffer of 100 mM MOPS, 100 mM MES, and 100 mM TAPS. For reduction assays, 75 μL of a 2 mg/mL NADPH stock was added to bring the initial concentration of NADPH in the cuvette to approximately 200 μM, and an approximate absorbance at 340 nm of 1.2 based on the reported extinction coefficient of 6220 M^−1 cm^−1 for NADPH. In all assays, the reaction was run for at least two minutes with the NADPH and substrate present, prior to the addition of any enzyme, to obtain a background oxidation rate of the NADPH. […] A linear fit of the data was then used to establish the rate, and the initial background rate was subtracted, to determine the rate associated with substrate reduction by the MBP-FALDR enzyme.
# To probe the possible mechanism of the fatty aldehyde reducatase enzyme comprising the amino acid sequence of SEQ ID NO: 2, applicants again used the MBP-FALDR enzyme and some potential chemical inhibitors were tested for effects on the reduction of decanal by the MBP-FALDR enzyme in the presence of NADPH. In all cases, the compound was tested initially at concentrations of 1.0 mM, and if a significant inhibition was found, lower concentrations were also tested (Table 2). […] At higher concentrations, this was difficult to assess fully, as the dithionite interferes with the absorbance at 340 nm where activity is measured. […] This could be an indication of an active site residue or cofactor that is susceptible to reduction. […] This would indicate that if a transition metal is involved in the catalysis, it is not readily accessible to such chelators. Finally, the ability of decanol to inhibit reduction of decanal was also tested.
# Certain embodiments of the invention may be characterized, in part, by the inhibition of the reduction of decanal by a fatty aldehyde reductase enzyme comprised by an amino acid sequence at least 90% identical to the amino acid sequence of SEQ ID NO: 2.
# Referring again to Table 2, the inhibition assays were run in 100 mM MES buffer pH 6.5 with 200 μM NADPH, 250 μM decanal and 125 μg of MBP-FALDR fusion protein. All compounds were dissolved in buffer except dipyridyl, which was dissolved in dimethyl sulfoxide (DMSO). […] Activity is reported as the activity remaining in the presence of each compound as a percentage of the activity without any inhibitor present. *Not determined. Each compound was tested multiple times to confirm reproducibility. The remaining activity presented here is the result from a single set of data.
# [2] = system: MBP-FALDR enzyme (maltose binding protein-fatty aldehyde reductase fusion protein); assay: Continuous spectrophotometric assay of fatty aldehyde reductase activity (NADPH oxidation at 340 nm), substrate comparison and kinetics; assay type: biochemical, Marinobacter aquaeolei VT8; conditions: for substrate activity in words: compared with decanal; for substrate activity in words / Relative Activity (Percent of Decanal): substrate 100 μg/mL; for Relative Activity (Percent of Decanal): 160 μg enzyme, decanal = 85 nmols/min/mg = 100; for Km: substrate of MBP-FALDR, NADPH, FIG. 2 substrate is cis-11-hexadecenal
# Procedure: as §1
# Having established that the MBP-FALDR would utilize NADPH as a substrate, it was possible to employ a continuous spectrophotometric assay to monitor substrate reduction rates based on the loss of absorbance at 340 nm when NADPH is oxidized to NADP^+. Using this assay, it was possible to establish the pH dependence of the reduction reaction. The rate of reaction was highest at pH 6.3, with a steep increase in activity going from 8.0 to 6.3. The rate at 6.3 was only slightly greater than at 6.5 ([…]). Several factors had to be considered in establishing the optimal pH of the assay. The first was the background oxidation of the NADPH without any MBP-FALDR enzyme present. […] The assays were run under an argon atmosphere to minimize oxidation of the NADPH by O2. A further consideration was the rapid degradation that occurs at the lowest pH values. […] So, for standard assays used here, a pH of 6.5 was selected, where the activity was minimally affected by slight variations in pH. The following discussion is useful in understanding some features and benefits of the various embodiments of the invention:
# Utilizing the continuous assay to monitor MBP-FALDR activity, the dependence of rate on substrate concentration was determined for all of the commercially available substrates described above. Each assay was repeated multiple times to confirm the results from each single determination. The results obtained for cis-11-hexadecenal are shown in FIG. 2 and are representative of the results obtained for repeated determinations and for the other substrates. […] In addition, several factors could limit the observed activity. All of the substrates tested have limited solubility in aqueous solutions, and must first be suspended in solution via sonication. Even under these conditions, it is likely that the substrates exist inside micelles. The sonication process utilized here could result in the partial degradation of the substrate over time. Additionally, the suspension of the substrate in solution is only temporary, and the substrate slowly separates from aqueous solution. Due to these limitations, the measured activity is likely to be an underestimate of the actual activity. In the cell, the enzyme and substrate are likely associated with the hydrophobic membranes. […] It was also observed that the MBP-FALDR enzyme was unstable over time, even when stored at 4° C., losing as much as 50% of the activity over a period of a week. Though the purification is quite rapid, it is uncertain how much activity is lost during preparation. […]
# [3] = system: MBP-FALDR fusion protein; assay: Inhibition of decanal reduction by MBP-FALDR in the presence of NADPH; assay type: biochemical, Marinobacter aquaeolei VT8; conditions: for Percent Activity: 100 mM MES pH 6.5, 200 μM NADPH, 250 μM decanal, 125 μg MBP-FALDR, activity remaining vs no inhibitor; for effect on decanal reduction in words: tested at 1.0 mM
# Procedure: For Fatty Aldehyde Continuous Spectrophotometric Assay Development, all assays were performed in a sealed quartz cuvette with a 1 cm path length. The cuvette and solutions were first degassed with argon on a manifold to remove oxygen from the headspace and solutions. Substrates were initially disbursed into a buffer solution containing BSA at a concentration of 0.5 mg/mL by sonication for three ten second intervals using a microtip sonicator (Branson, Danbury, Conn.). The initial assay for pH optimization included a buffer of 100 mM MOPS, 100 mM MES, and 100 mM TAPS. For reduction assays, 75 μL of a 2 mg/mL NADPH stock was added to bring the initial concentration of NADPH in the cuvette to approximately 200 μM, and an approximate absorbance at 340 nm of 1.2 based on the reported extinction coefficient of 6220 M^−1 cm^−1 for NADPH. In all assays, the reaction was run for at least two minutes with the NADPH and substrate present, prior to the addition of any enzyme, to obtain a background oxidation rate of the NADPH.
# Finally, the ability of decanol to inhibit reduction of decanal was also tested.
# Referring again to Table 2, the inhibition assays were run in 100 mM MES buffer pH 6.5 with 200 μM NADPH, 250 μM decanal and 125 μg of MBP-FALDR fusion protein. All compounds were dissolved in buffer except dipyridyl, which was dissolved in dimethyl sulfoxide (DMSO).
# [4] = system: MBP-FALDR enzyme; assay: Initial assessment of activity: overnight reaction with NADPH/NADH or NADP+, GC/GC-MS analysis; assay type: biochemical, Marinobacter aquaeolei VT8; conditions: with NADP+
# Procedure: For initial assessment of the activity of the purified MBP-FALDR enzyme, 50 μg of purified MBP-FALDR protein was added to a reaction mixture containing 100 mM of Tris buffer at pH 7.9, 100 mM NaCl, 2.4 mM of either NADPH or NADH as a reductant, and decanal, oleic acid, and hexadecanol as possible substrates. The assays were run under an argon atmosphere in septa sealed vials overnight at room temperature with constant gentle mixing. The products of the reactions were then extracted from the buffer by adding an equal volume of hexane and organic layer components were analyzed by gas chromatography equipped with a flame ionization detector (Forte HT5 column (SGE Analytical Science, Austin, Tex.), 30 meter by 0.32 mm inner diameter with 0.5 μm film thickness, with argon as a carrier and a temperature ramp from 60° C. to 360° C. increasing at 10° C. per minute). Samples containing new peaks not present in a control sample were also run through a gas chromatograph equipped with a mass spectrometer (Shimadzu GC-2010 and GCMS-QP2010S) to assign the identity of the product.
# Preliminary experiments were run with the MBP-FALDR enzyme to probe possible substrates by mixing either NADH or NADPH with an aldehyde (decanal), alcohol (hexadecanol) or fatty acid (oleic acid) and then looking for changes in concentration of one or more of the potential substrates by GC analysis. The assays were allowed to run overnight in a sealed vial under an atmosphere of argon to maintain the reduced forms of the nicotinamide coenzymes. […] This initial result pointed to the likelihood that the MBP-FALDR enzyme is an NADPH-dependent fatty aldehyde reductase, and further experiments were run to characterize this activity. […] The activity of medium chain alcohol dehydrogenases from a broad range of species show rates of oxidation of alcohols that are 10% of the rates of the reduction of the corresponding aldehyde, so it is possible that this rate is too low to detect.
# [5] = reduction of decanal with NADPH
smiles,measurement,setting,value
OCCS [β-Mercaptoethanol],inhibition at 1000 µM,"[1]; 1.0 mM inhibitor, 100 mM MES pH 6.5, 200 μM NADPH, 250 μM decanal, 125 μg MBP-FALDR, % of activity without inhibitor, read-out: Percent Activity (activity remaining in presence of inhibitor)",75%
CCCC=O [Butanal],substrate activity in words,[2],no apparent activity
same,Relative Activity (Percent of Decanal),[2],<1% of Decanal
O=S(O)S(=O)O [Dithionite],Percent Activity,[3]; inhibitor 0.25 mM,8%
same,Percent Activity,[3]; inhibitor 1.0 mM,25%
same,effect on decanal reduction in words,[3],significant decrease in activity
same,Percent Activity (activity remaining in presence of inhibitor),"[1]; 0.25 mM inhibitor, 100 mM MES pH 6.5, 200 μM NADPH, 250 μM decanal, 125 μg MBP-FALDR, % of activity without inhibitor",8%
same,inhibition (in words),"[1]; 250 μM, reduction of decanal with NADPH, compared with higher concentration",the inhibition is more pronounced
same,Percent Activity (activity remaining in presence of inhibitor),"[1]; 1.0 mM inhibitor, 100 mM MES pH 6.5, 200 μM NADPH, 250 μM decanal, 125 μg MBP-FALDR, % of activity without inhibitor",25%
same,effect on activity (in words),[1]; [5],significant decrease in activity
CCCCCCCCCCCCO [Dodecanol],Percent Activity,[3]; inhibitor 0.25 mM,55%
same,Percent Activity,[3]; inhibitor 1.0 mM,54%
c1ccc(-c2ccccn2)nc1 [Dipyridyl],Percent Activity,[3]; inhibitor 0.25 mM,59%
same,Percent Activity,[3]; inhibitor 1.0 mM,46%
same,effect on decanal reduction in words,[3],moderate inhibition
same,effect on activity (in words),[1]; [5],only a moderate inhibition of activity
CCCCCCCC=O [Octanal],substrate activity in words,[2],approximately half the activity obtained for decanal
same,Relative Activity (Percent of Decanal),[2],52% of Decanal
same,Km,[2]; Michaelis-Menten fit,~750 µM
O=C(O)CN(CCN(CC(=O)O)CC(=O)O)CC(=O)O [EDTA (Disodium Salt)],effect on activity (in words),[1]; [5],little effect on the activity
same,inhibition at 1000 µM,"[1]; pH 6.5, read-out: Percent Activity (activity remaining in presence of inhibitor)",81%
O=Cc1ccccc1 [Benzaldehyde],substrate activity in words,[2],no apparent activity
same,Relative Activity (Percent of Decanal),[2],<1% of Decanal
CCCC/C=C\CCCCCCCCCC=O [cis-11-hexadecenal],Vmax (maximum velocity),"[2]; Michaelis-Menten fit, substrate cis-11-hexadecenal (FIG. 2)",63 nmol/min/mg
same,substrate activity in words,[2],slightly lower than that obtained for decanal; also recorded: activity comparable to decanal
same,Relative Activity (Percent of Decanal),[2],87% of Decanal
same,Km,[2]; Michaelis-Menten fit,~177 µM and 177 µM
CCCCCC=O [Hexanal],substrate activity in words,[2],no apparent activity
same,Relative Activity (Percent of Decanal),[2],<1% of Decanal
CCCCCCCCCCCCCCCCO [hexadecanol],reverse reaction: aldehyde production by GC,[4],no detectable levels
CCCCCCCCCCCC=O [Dodecanal],substrate activity in words,[2],activity was lower
same,Relative Activity (Percent of Decanal),[2],55% of Decanal
same,Km,[2]; Michaelis-Menten fit,~200 µM
O[C@H](CS)[C@H](O)CS (racemic) [Dithiothreitol],Percent Activity,[3]; inhibitor 1.0 mM,76%
O=C1O[C@H]([C@@H](O)CO)C(O)=C1O [Ascorbic Acid],Percent Activity,[3]; inhibitor 1.0 mM,76%
